Test results from PMC9416111, “Synthesis and Biological Activity of Unsymmetrical Monoterpenylhetaryl Disulfides” (Molecules, 2022).
Converted amounts (≈) assume the structure as drawn.

Columns and labels:
[1] = system: P. aeruginosa ATCC 27853; experiment: Antibacterial MIC, broth microdilution (EUCAST); type: cell-based, Pseudomonas aeruginosa; details: for MIC: Pseudomonas aeruginosa, ATCC27853, 24 h, Mueller-Hinton broth
Procedure: (§1) Minimum inhibitory concentrations (MICs) of compounds was determined by the broth microdilution assay in 96-well plates (Eppendorf, Hamburg, Germany) according to the EUCAST rules for antimicrobial susceptibility testing in full Mueller-Hinton broth (MH). The concentrations of compounds to be tested ranged from 1 to 2048 µg/mL. The MIC was determined as the lowest concentration of an antibiotic for which no visible bacterial growth could be observed after 24 h of incubation.

[2] = system: Candida albicans 703 clinical isolate; experiment: Antifungal MIC, broth microdilution (CLSI M27-A3); details: for MIC: Candida albicans, 24 h, read-out: MIC C. albicans 703 Clinical Isolate
[3] = in vitro; details: dog
[4] = system: influenza virus A/Puerto Rico/8/34 (H1N1); experiment: Antiviral cell protection assay in MDCK cells; type: cell-based; details: H1N1, MDCK, 72 h
[5] = system: EBL cells (embryonic bovine lung); experiment: Cytotoxicity, MTT on EBL cells
Procedure: (§3) Cytotoxicity of compounds was determined using the microtetrazolium test (MTT) on EBL cells. The cells were cultured in DMEM—Dulbecco’s Modified Eagle’s Medium (Sigma Aldrich, St. Louis, MO, USA) supplemented with 10% FBS, 2 mM L-glutamine, 100 µg/mL penicillin and 100 µg/mL streptomycin. Cells were seeded in 96-well plates with the density of 3000 cells per well and left overnight to allow for the attachment. Cells were next cultured at 37 °C and 5% CO2 in the presence of compounds of interest at various concentrations from 1.25 to 160 µg/mL. After 24 h of cultivation the cells were subjected to MTT-assay. The formazan was solubilized by DMSO and the optical density was measured on Tecan Infinite 200Pro at 570 nm. The concentration required to inhibit cellular dehydrogenase activity by 50% (CC50 value) was calculated by using GraphPad Prism 6.0 software (GraphPad software, San Diego, CA, USA).

[6] = Cytotoxicity, MTT on EBL cells; details: bovine, EBL cells (embryonic bovine lung)
Procedure: as §3

[7] = system: S. aureus ATCC 29213 (MSSA); experiment: Antibacterial MIC, broth microdilution (EUCAST); type: cell-based, Staphylococcus aureus; details: for MIC: Staphylococcus aureus, 24 h, Mueller-Hinton broth
Procedure: as §1

[8] = system: S. aureus MRSA clinical isolate; experiment: Antibacterial MIC, broth microdilution (EUCAST); type: cell-based, Staphylococcus aureus; details: for MIC: Staphylococcus aureus, MRSA, 24 h, Mueller-Hinton broth
Procedure: as §1

[9] = system: red blood cells from laboratory mice; experiment: Membrane-protective activity: H2O2-induced hemolysis of erythrocytes; type: cell-based; details: 1 μM, 1–5 h
Procedure: The membrane-protective properties of the compounds were evaluated in the model of oxidative hemolysis of erythrocytes at a concentration of 1 μM in order to avoid the effect of hemolytic activity.
(§2) To evaluate the erythrotoxicity, antioxidant and membrane-protective activity of the compounds, we used 0.5% (v/v) suspension of red blood cells from laboratory mice in phosphate-buffered saline (PBS, pH 7.4). The test substances were previously dissolved in ethanol. Erythrotoxicity (hemolytic activity) was evaluated by the degree of hemolysis of red blood cells 1–5 h after the introduction of solutions of the compounds. Membrane-protective and antioxidant activity was determined by the degree of inhibition of H2O2-induced hemolysis. For this purpose, 30 min after the erythrocyte suspension was added to the solutions of the test compounds, hemolysis was initiated with a solution of hydrogen peroxide (0.006%). Then, the reaction mixture was incubated in a thermostatic shaker Biosan ES-20 with slow stirring at 37 °C for 5 h. An aliquot was taken from the incubation medium every hour, centrifuged for 5 min (1600× g), and the degree of hemolysis was determined by the hemoglobin content in the supernatant on a ThermoSpectromic Genesys 20 spectrophotometer (Thermo Fisher Scientific, Waltham, MA, USA) at 524 nm. The percentage of hemolysis was calculated in relation to the complete hemolysis of the sample. Each experiment was designed with 4–8 replicates. Statistical data processing and charting were performed using the Microsoft Office Excel 2007 software package (Microsoft, Redmond, WA, USA). The data represent the mean ± SE.
Figure 4 Effect of unsymmetrical disulfides and Trolox (T) at a concentration of 1 μM on the level of H2O2-induced hemolysis of erythrocytes after 1–5 h of incubation.

[10] = system: red blood cells from laboratory mice; experiment: Erythrotoxicity (hemolytic activity); type: cell-based; details: 100 μM, 1, 3 and 5 h of incubation
Procedure: No significant hemolytic activity was detected at a concentration of 1 μM (Figure 3B).
as §2
Figure 3 Hemolytic activity of unsymmetrical disulfides at the concentration of 100 μM (A) and 1 μM (B) after 1, 3 and 5 h of incubation.

[11] = Antioxidant activity: inhibition of lipid peroxidation (TBA-RS) in brain homogenates; design: species or system mice; details: 100 μM and 1 mM, 1 h after initiation of LPO (ascorbate/Fe2+)
Procedure: The antioxidant activity of monoterpenylhetaryl disulfides was evaluated for their in vitro ability to inhibit lipid peroxidation (LPO) processes in the brain lipids of laboratory mice. The brain was removed and homogenized (10%) in physiological saline (pH = 7.4) and centrifuged for 10 min. Then, an aliquot of the supernatant (S1) was taken, into which the test compounds were added as solutions in ethanol (final concentration of 100 μM and 1 mM). After 30 min, LPO was initiated by adding a freshly prepared solution of FeSO4 and ascorbic acid. Then, the test samples were incubated for one hour at 37 °C with slow stirring in a thermostatic Biosan ES-20 shaker (Biosan, Riga, Latvia). The concentration of LPO secondary products reacting with 2-thiobarbituric acid (thiobarbituric acid reactive substances, TBA-RS) was determined using ThermoSpectromic Genesys 20 spectrophotometer (Thermo Fisher Scientific, Waltham, MA, USA) at λ = 532 nm, the extinction coefficient 1.56 × 10^5 M^−1cm^−1 was used for calculations.
Figure 2 Effect of unsymmetrical disulfides and Trolox (T) at concentrations of 100 μM and 1 mM on the content of TBA-RS in the brain homogenate in an hour after the initiation of LPO (ascorbate/Fe^2+ initiators). C—control sample containing no test compounds; I—intact sample in which LPO was not initiated.

[12] = system: S. typhimurium TA98, TA100 and TA102 strains; experiment: Mutagenicity in the Ames test (spot-test); type: cell-based, Salmonella typhimurium; details: strain in which mutagenicity was found; NF = not found
Procedure: The mutagenicity of compounds was evaluated in the Ames test with S. typhimurium TA98, TA100 and TA102 strains as described in [38]. The spot-test modification has been applied to avoid false-negative results driven with antibacterial activity of compounds. The tested compound was considered to be mutagenic if the number of revertant colonies increased more than 2 times close to the filter paper with compound.

## CC1(C)[C@H]2CC[C@@H](CSSc3nc4ccccc4s3)[C@@H]1C2 [Compound 2a, 2-((((1S,2R,5S)-6,6-dimethylbicyclo [3.1.1]heptan-2-yl)methyl)disulfaneyl)benzo[d]thiazole]
[1]
  activity against P. aeruginosa ATCC 27853, in words: repressed the growth
  MIC: 64 µg/mL (≈ 191 µM)
[2]
  MIC: 1020 µg/mL (≈ 3050 µM)
[3]
  CC50: 99 ± 5 µM
[4]
  IC50: 13 ± 3 µM
[5]
  cytotoxicity on EBL cells, in words: least toxicity
[6]
  CC50 at 24 h: 104 µg/mL (≈ 311 µM)
[7]
  MIC: 128 µg/mL (≈ 381 µM)
[8]
  MIC: 128 µg/mL (≈ 381 µM)
[9]
  membrane-protective activity, in words: most active
[10]
  hemolytic activity (erythrotoxicity), in words: Low hemolytic activity

## COC(=O)c1cccnc1SSC[C@@H]1[C@@H](O)C[C@H]2C[C@@H]1C2(C)C [Compound 4c, Methyl 2-((((1S,2S,3S,5R)-3-hydroxy-6,6-dimethylbicyclo[3.1.1]heptan-2-yl)methyl)disulfanyl)pyridine-3-carboxylate]
[1]
  MIC: > 1020 µg/mL
[2]
  MIC: 1020 µg/mL (≈ 2900 µM)
[3]
  CC50: 40 ± 2 µM
[4]
  IC50: 34 ± 4 µM
[7]
  MIC: 1020 µg/mL (≈ 2900 µM)
[8]
  MIC: > 1020 µg/mL
[11]
  antioxidant activity (inhibition of oxidation of brain lipids), in words: highest antioxidant activity
[9]
  membrane-protective activity, in words: most active

## COC(=O)c1cccnc1SSC[C@@H]1CC[C@H]2C[C@@H]1C2(C)C [Compound 2c, Methyl 2-((((1S,2R,5S)-6,6-dimethylbicyclo[3.1.1]heptan-2-yl)methyl)disulfaneyl)pyridine-3-carboxylate]
[1]
  MIC: 1020 µg/mL (≈ 3030 µM)
[2]
  MIC: 1020 µg/mL (≈ 3030 µM)
[3]
  CC50: 104 ± 8 µM
[4]
  IC50: 19 ± 3 µM
[5]
  cytotoxicity on EBL cells, in words: least toxicity
[6]
  CC50 at 24 h: 123 µg/mL (≈ 363 µM)
[7]
  antibacterial activity against MSSA, in words: inactive
  MIC: > 1020 µg/mL
[8]
  antibacterial activity against MRSA, in words: showing activity
  MIC: 64 µg/mL (≈ 190 µM)
[9]
  membrane-protective activity, in words: most active

## COC(=O)c1cccnc1SS[C@H]1C[C@H](C)CC[C@H]1C(C)C [Compound 1c, Methyl 2-(((1S,2S,5R)-2-isopropyl-5-methylcyclohexyl)disulfanyl)pyridine-3-carboxylate]
[1]
  MIC: 32 µg/mL (≈ 94.2 µM)
[2]
  MIC: 512 µg/mL (≈ 1510 µM)
[3]
  CC50: 31 ± 2 µM
[4]
  IC50: 12 ± 2 µM
[6]
  CC50 at 24 h: 18.3 µg/mL (≈ 53.9 µM)
[7]
  MIC: 32 µg/mL (≈ 94.2 µM)
[8]
  MIC: 32 µg/mL (≈ 94.2 µM)
other
  melting point: 96 °C

## Cc1cc(C)nc(SS[C@H]2C[C@H](C)CC[C@H]2C(C)C)n1 [Compound 1b, 2-(((1S,2S,5R)-2-isopropyl-5-methylcyclohexyl)disulfanyl)-4,6-dimethylpyrimidine]
[1]
  MIC: 32 µg/mL (≈ 103 µM)
[2]
  MIC: 512 µg/mL (≈ 1650 µM)
[3]
  CC50: 29 ± 2 µM
[4]
  IC50: 13 ± 2 µM
[6]
  CC50 at 24 h: 14 µg/mL (≈ 45.1 µM)
[7]
  MIC: 16 µg/mL (≈ 51.5 µM)
[8]
  MIC: 32 µg/mL (≈ 103 µM)
[12]
  Mutagenicity in the Ames Test: TA 102

## COC(=O)c1cccnc1SS[C@H]1C[C@H]2C[C@@H]([C@@H]1CO)C2(C)C [Compound 3c, Methyl 2-(((1S,2R,3S,5R)-2-(hydroxymethyl)-6,6-dimethylbicyclo[3.1.1]hept-3-yl)disulfanyl)pyridine-3-carboxylate]
[1]
  MIC: 1020 µg/mL (≈ 2900 µM)
[2]
  MIC: 1020 µg/mL (≈ 2900 µM)
[3]
  CC50: > 283 µM
[4]
  IC50: 255 ± 31 µM
[6]
  CC50 at 24 h: 8.1 µg/mL (≈ 22.9 µM)
[7]
  MIC: 64 µg/mL (≈ 181 µM)
[8]
  MIC: 32 µg/mL (≈ 90.5 µM)
[11]
  antioxidant activity (inhibition of oxidation of brain lipids), in words: highest antioxidant activity
[9]
  membrane-protective activity, in words: most active

## CC1(C)[C@H]2C[C@H](SSc3ncccc3C(=O)O)[C@@H](CO)[C@@H]1C2 [Compound 3d, 2-(((1S,2R,3S,5R)-2-(hydroxymethyl)-6,6-dimethylbicyclo[3.1.1]heptan-3-yl)disulfanyl)nicotinic acid]
[1]
  MIC: 1020 µg/mL (≈ 3020 µM)
[2]
  antifungal activity against Candida albicans 703, in words: active against yeast
  MIC: 32 µg/mL (≈ 94.3 µM)
[3]
  CC50: 285 ± 14 µM
[4]
  IC50: 132 ± 16 µM
[5]
  cytotoxicity on EBL cells, in words: least toxicity
[6]
  CC50 at 24 h: 118 µg/mL (≈ 347 µM)
[7]
  MIC: 512 µg/mL (≈ 1510 µM)
[8]
  MIC: 1020 µg/mL (≈ 3020 µM)
other
  melting point: 99 °C
[10]
  hemolytic activity (erythrotoxicity), in words: Low hemolytic activity

## CC(C)[C@@H]1CC[C@@H](C)C[C@@H]1SSc1ncccc1C(=O)O [Compound 1d, 2-(((1S,2S,5R)-2-isopropyl-5-methylcyclohexyl)disulfanyl)nicotinic acid]
[1]
  MIC: 1020 µg/mL (≈ 3150 µM)
[2]
  MIC: 64 µg/mL (≈ 197 µM)
[3]
  CC50: 38 ± 3 µM
[4]
  IC50: > 34 µM
[6]
  CC50 at 24 h: 47.8 µg/mL (≈ 147 µM)
[7]
  MIC: 32 µg/mL (≈ 98.3 µM)
[8]
  MIC: 64 µg/mL (≈ 197 µM)
other
  melting point: 160 to 161 °C (dec.)

## CC(C)[C@@H]1CC[C@@H](C)C[C@@H]1SSc1nc2ccccc2s1 [Compound 1a, 2-(((1S,2S,5R)-2-isopropyl-5-methylcyclohexyl)disulfanyl)benzo[d]thiazole]
[1]
  MIC: 16 µg/mL (≈ 47.4 µM)
[2]
  MIC: 512 µg/mL (≈ 1520 µM)
[3]
  CC50: 36 ± 3 µM
[4]
  IC50: 5 ± 1 µM
[6]
  CC50 at 24 h: 11.7 µg/mL (≈ 34.7 µM)
[7]
  MIC: 16 µg/mL (≈ 47.4 µM)
[8]
  MIC: 16 µg/mL (≈ 47.4 µM)
[12]
  Mutagenicity in the Ames Test: TA 100
[10]
  hemolytic activity (erythrotoxicity), in words: Low hemolytic activity
